Laboratory results published in publication PMC2149952 (British Journal of Cancer, 1998).
Where two headings read alike, the source gives them in different places.

Experiments:
[1] = in vivo
Procedure: British Joumal of Cancer (1998) 77(5), 808-81 1 ? […] Penclomedine administration by 1-h intravenous infusion on 5 consecutive days was repeated 3 weekly in the absence of dose-limiting toxicity (DLT) or disease progression. Five dose levels were investigated (22.5-340 mg m-2 day-'). Eight men and eight women were entered, median age 59 years (range 39-73 years), with good performance status (ECOG 0/1) in 11 patients. A total of 13 out of 16 patients had received previous chemotherapy. […] Neurotoxicity developed during the 1-h infusion and persisted for a variable period (maximum 5 h) after infusion. […] Penclomedine pharmacokinetic studies confirmed preclinical evidence of extensive apparent distribution (931 m-2) and rapid clearance (41 1 h-1m-2). […] Therefore, an experimental formulation of penclomedine as a 10% oil in water emulsion was developed for intravenous (i.v.) administration. […] Single treatments were effective when administered intra- venously, but the dose used in a rapid bolus push was limited by acute lethality. […] Penclomedine has also been tested in drug-resistant cell lines (doxorubicin, vincristine, cisplatinum, methotrexate, Ara-C and 5-FU) including the multidrug-resistant (MDR) phenotype. […] Preclinical toxicology studies were performed in mice, rats, and dogs. In mice, the maximum tolerated dose (MTD) was 150 mg kg-' (450 mg m-2) as a single i.v. dose and 80 mg kg-' day-' (240 mg m-2 day-'; total dose 1200 mg m-2) on a daily x 5 schedule. […] 808 Phase I trial of penclomedine 809 The aims of this phase I study were: (a) to determine the MTD of penclomedine when administered i.v. once daily for 5 days every 21 days; (b) to identify the toxicity profile of penclomedine and to determine whether this is predictable, tolerable and reversible, and to define dose-limiting toxicities in patients; (c) to determine the pharmacokinetics of penclomedine at different dose levels; (d) to define a safe dose for subsequent phase II studies of anti-tumour activity; and (e) to observe and record any possible therapeutic effectiveness of penclomedine. MATERIALS AND METHODS This was an open non-randomized study with dose escalation that continued until the dose-limiting toxicity was defined. A minimum of three patients were treated at each dose level. […] All patients were required to give written informed consent. Before commencing the study ethical approval was obtained from the Medicine and Clinical Oncology Research Ethics Sub-Committee of Lothian Health Board (ref. MCO/ 105/92) and the study was conducted according to the Helsinki Declaration. This trial was conducted under the auspices of the Cancer Research Campaign Phase I/II Clinical Trials Committee. […]

malignancy = experiment: Phase I study: tumour response (UICC criteria); type: in vivo; conditions: 16 patients, all dose levels
Procedure: British Joumal of Cancer (1998) 77(5), 808-81 1 ? […] Penclomedine administration by 1-h intravenous infusion on 5 consecutive days was repeated 3 weekly in the absence of dose-limiting toxicity (DLT) or disease progression. Five dose levels were investigated (22.5-340 mg m-2 day-'). Eight men and eight women were entered, median age 59 years (range 39-73 years), with good performance status (ECOG 0/1) in 11 patients. A total of 13 out of 16 patients had received previous chemotherapy. […] Neurotoxicity developed during the 1-h infusion and persisted for a variable period (maximum 5 h) after infusion. […] Penclomedine pharmacokinetic studies confirmed preclinical evidence of extensive apparent distribution (931 m-2) and rapid clearance (41 1 h-1m-2). […] Therefore, an experimental formulation of penclomedine as a 10% oil in water emulsion was developed for intravenous (i.v.) administration. […] Single treatments were effective when administered intra- venously, but the dose used in a rapid bolus push was limited by acute lethality. […] Penclomedine has also been tested in drug-resistant cell lines (doxorubicin, vincristine, cisplatinum, methotrexate, Ara-C and 5-FU) including the multidrug-resistant (MDR) phenotype. […] Preclinical toxicology studies were performed in mice, rats, and dogs. […]

[2] = Plasma pharmacokinetics in phase I patients (HPLC, two-compartment model); type: in vivo
Procedure: British Joumal of Cancer (1998) 77(5), 808-81 1 ? […] Penclomedine administration by 1-h intravenous infusion on 5 consecutive days was repeated 3 weekly in the absence of dose-limiting toxicity (DLT) or disease progression. Five dose levels were investigated (22.5-340 mg m-2 day-'). Eight men and eight women were entered, median age 59 years (range 39-73 years), with good performance status (ECOG 0/1) in 11 patients. A total of 13 out of 16 patients had received previous chemotherapy. […] Neurotoxicity developed during the 1-h infusion and persisted for a variable period (maximum 5 h) after infusion. […] Penclomedine pharmacokinetic studies confirmed preclinical evidence of extensive apparent distribution (931 m-2) and rapid clearance (41 1 h-1m-2). […] Therefore, an experimental formulation of penclomedine as a 10% oil in water emulsion was developed for intravenous (i.v.) administration. […] Single treatments were effective when administered intra- venously, but the dose used in a rapid bolus push was limited by acute lethality. […] Penclomedine has also been tested in drug-resistant cell lines (doxorubicin, vincristine, cisplatinum, methotrexate, Ara-C and 5-FU) including the multidrug-resistant (MDR) phenotype. […] Preclinical toxicology studies were performed in mice, rats, and dogs. In mice, the maximum tolerated dose (MTD) was 150 mg kg-' (450 mg m-2) as a single i.v. dose and 80 mg kg-' day-' (240 mg m-2 day-'; total dose 1200 mg m-2) on a daily x 5 schedule. […] 808 Phase I trial of penclomedine 809 The aims of this phase I study were: (a) to determine the MTD of penclomedine when administered i.v. once daily for 5 days every 21 days; (b) to identify the toxicity profile of penclomedine and to determine whether this is predictable, tolerable and reversible, and to define dose-limiting toxicities in patients; (c) to determine the pharmacokinetics of penclomedine at different dose levels; (d) to define a safe dose for subsequent phase II studies of anti-tumour activity; and (e) to observe and record any possible therapeutic effectiveness of penclomedine. MATERIALS AND METHODS This was an open non-randomized study with dose escalation that continued until the dose-limiting toxicity was defined. A minimum of three patients were treated at each dose level. […] All patients were required to give written informed consent. Before commencing the study ethical approval was obtained from the Medicine and Clinical Oncology Research Ethics Sub-Committee of Lothian Health Board (ref. MCO/ 105/92) and the study was conducted according to the Helsinki Declaration. This trial was conducted under the auspices of the Cancer Research Campaign Phase I/II Clinical Trials Committee. […] Adequate bone marrow, hepatic and renal function was required (WBC > 3 x 109 1-1, platelet count > 100 x 109 1-1, serum creatinine < 120 gmmol 1-l, bilirubin < 30 gmol 1-1, and other liver function tests within twice the upper limit of normal (unless known to be related to liver metastases)). Patients were deemed ineligible in the event of pregnancy or lactation, previous chemotherapy or radiotherapy within the last 4 weeks (6 weeks for nitrosoureas or mitomycin C), the presence of another non-malignant disease that in the opinion of the investi- gator was incompatible with this protocol, concurrent administra- tion of another investigational drug, or cytotoxic, hormonal or biological therapy. Patients with brain metastases or primary brain tumours were excluded and also patients with epilepsy or chronic neurological disorders that might interfere with the assessment of neurological toxicity. Penclomedine was formulated as a de novo emulsion (in 100 ml: soybean oil, […]; lecithin, 30 mg; glycerin 20 mg and water for injection) and stored as intact vials under refrigeration (2-8?C). Penclomedine emulsions were diluted up to 1:10 using 5% dextrose solution. […] Penclomedine was supplied by the NCI DCT under the special foreign exemption mechanism established with the FDA. […]

[3] = set-up: method as in Reid et al, 1992; conditions: ref Reid et al, 1992, cited from earlier work
[4] = set-up: method as in Reid et al, 1992; conditions: ref Reid et al, 1992; cited from earlier work
[5] = set-up: method as in personal communication, AC Smith, NCI; conditions: mice, ref personal communication, AC Smith, NCI, cited from earlier work
cerebellum = test system: cerebellum; set-up: method as in O'Reilly et al, 1996a; conditions: ref O'Reilly et al, 1996a, cited from earlier work
[6] = test system: human MX-1 mammary tumour xenograft; conditions: cited from earlier work
[7] = test system: subrenal capsule xenograft of the human MX-1 mammary carcinoma; set-up: method as in Harrison 1991; conditions: oral 300 mg kg-1 day-1 on days 13, 17 and 21; for 40 days after the last treatment; ref Harrison 1991; cited from earlier work
[8] = test system: human H82 small cell lung carcinoma xenografts; set-up: method as in Harrison 1991; conditions: oral 445 mg kg-1 day-1; ref Harrison 1991; cited from earlier work
[9] = test system: drug-resistant cell lines; set-up: method as in Harrison et al, 1991; conditions: ref Harrison et al, 1991, cited from earlier work
[10] = test system: mouse CD8F, mammary carcinoma; set-up: method as in Plowman et al, 1989; conditions: ref Plowman et al, 1989; cited from earlier work
[11] = set-up: method as in Prankerd et al, 1989; conditions: ref Prankerd et al, 1989; cited from earlier work
[12] = set-up: method as in O'Reilly et al, 1996b; conditions: ref O'Reilly et al, 1996b; cited from earlier work
[13] = cited from earlier work
[14] = mean of 10 patients, 150-340 mg m-2 day-1, initial 24 h

COc1nc(C(Cl)(Cl)Cl)c(Cl)c(OC)c1Cl [penclomedine, 3,5-Dichloro-2,4-dimethoxy-6-(trichloromethyl)pyridine]
persistence of neurotoxicity after infusion (maximum) ([1]; both, human): ≤ 5 h
dose at which dose-limiting toxicity occurred ([1]; both, human, iv, 5 days): 340 mg m-2 day-1
antiproliferative toxicities (myelosuppression, mucositis) [1]: No antiproliferative toxicities were noted
dose-limiting toxicity (DLT) ([1]; iv): Neurotoxicity (cerebellar ataxia and dizziness)
anti-tumour responses (malignancy): no anti-tumour responses were documented
dose dependence of total body clearance ([2]; 150-340 mg m-2 day-1): did not vary with dose
metabolites in plasma of patients ([2]; human, in vivo): not detected
apparent distribution volume (mean Vc + Vp) ([2]; human, in vivo, iv): 93 l m-2
half-life ([2]; human, in vivo, patients, read-out: apparent elimination phase half-life (t1/2 beta) (converted)): 2.4 h
half-life ([2]; human, in vivo, patients, read-out: initial distribution phase half-life (t1/2 alpha)): 0.2 h
Cld (distributional clearance), mean [2, 14]: 43 l h-1 m-2
Clt (total body clearance), mean [2, 14]: 41 l h-1 m-2
clearance ([2]; patients, i.v. infusion, abstract): 41 l h-1 m-2
metabolism of radiolabelled penclomedine ([3]; after both i.v. and oral administration): extensive
clearance ([3]; mice, parent drug): 114 ml min-m m-2
half-life ([3]; mice, parent drug): 1.15 h
volume of distribution ([3]; mice, parent drug): 4.8 l m-2
oral bioavailability of the parent compound ([3]; mice): 2%
in vitro metabolism [4]: subject to metabolism under both oxidative and reductive conditions
dose-limiting toxicity ([5]; daily x 5 schedule): bone marrow suppression
maximum tolerated dose (MTD), total dose ([5]; daily x 5 schedule): 1200 mg m-2
dose-limiting toxicity ([5]; single dose schedule): neurological
cerebellar finding in preclinical models (cerebellum; after intraperitoneal administration): Purkinje cell loss
single dose producing visible pathological changes in the cerebellum (cerebellum; rats, intraperitoneal injection, may be irreversible): ≥ 150 mg kg-1
tumour-free survivors ([6]; advanced stage MX-1 mammary carcinoma, oral 135 mg kg-1 day-1 for 5 days, oil in water emulsion, ref Harrison et al, 1991): ten out of ten
anti-tumour activity ([6]; human MX-1 mammary tumour xenograft, ref Plowman et al, 1989): good activity
tumour regression [7]: complete regression of all tumours
complete regressions [8]: six out of ten
partial regressions [8]: four out of ten
activity in resistant versus wild-type cell lines ([9]; lines resistant to doxorubicin, vincristine, cisplatinum, methotrexate, Ara-C and 5-FU, including MDR phenotype): equivalent activity
sensitivity of AMSA-resistant line [9]: collaterally sensitive
sensitivity of L-PAM-resistant line [9]: resistant
anti-tumour activity [10]: good activity
solubility in non-polar solvents and lipids [11]: soluble
solubility in water [11]: poorly soluble
chemical species found in rat brain [12]: predominant chemical species
toxicity at the MTD ([13]; beagle dogs, 90 mg kg-1, ref Dixit et al, 1992): reversible myelosuppression
plasma penclomedine concentrations ([13]; beagle dogs, 90 mg kg-1 dose level, not associated with neurotoxicity, ref Dixit et al, 1992): 6 to 9 µg/mL
maximum tolerated dose (MTD) ([13]; beagle dogs, single 5-h infusion, ref Dixit et al, 1992): 90 mg/kg
toxicity at higher dosages ([13]; dog, in vivo): dose-limiting neurotoxicity
